In patent US20100233231A1, “USE OF CRYOGENIC PROCESSING TO OBTAIN A SUBSTANTIALLY-THICKENED FORMULATION” (priority 2009, published 2010):
One block for each molecule: values may come before it.

Test: Consistency and homogeneity of the formulation after cryo-processing (observation)
Type: physicochemical
Conditions: 8 cycles
Experimental: Fish oil was cured to a film with the use of heat.
It was processed in a Spex Certiprep cryogrinder for 8 cycles, each cycle lasting 2.0 minutes and with a 2.0 minute between-cycle cool down to maintain the system at cryogenic temperatures.

Structure (SMILES): O=C(CO)[C@@H](O)[C@H](O)[C@H](O)CO [Fructose]
- consistency of resulting formulation (Example 5: 40% in 100% fish oil, 20 impacts per second): highly viscous upon standing and was extremely shear thinning

Structure (SMILES): CO[C@H]1C[C@@H]2CC[C@@H](C)[C@@](O)(O2)C(=O)C(=O)N2CCCC[C@H]2C(=O)O[C@H]([C@H](C)C[C@@H]2CC[C@@H](O)[C@H](OC)C2)CC[C@H](C)/C=C(\C)[C@@H](O)[C@@H](OC)C(=O)[C@H](C)C[C@H](C)/C=C/C=C/C=C/1C [Rapamycin derivative]
- consistency of resulting formulation (Example 2: 31% in 70% fish oil 30% vitamin E, 20 impacts per second): highly viscous and shear thinning with small crystals evident throughout the sample

- consistency of resulting formulation (Example 7: 30% in 70% fish oil 30% Vitamin E, 30 impacts per second): highly viscous and smooth
Structure (SMILES): CCCCCCCCCCCCCCCCO [Cetyl Alcohol]
